What was measured:
[1] = (§1) Inhibition of Sporosarcina pasteurii urease using urea as substrate after 15 min
[2] = tested on: Sporosarcina pasteurii; assay: as §1

NC(N)=S [THIOUREA]
IC50 [1]: 25 µM

COc1c(O)cc2c(c1O)[C@@H]1O[C@H](CO)[C@@H](O)[C@H](O)[C@H]1OC2=O [BERGENIN]
inhibition [2]: 78% | IC50 [1]: 21.7 µM
